The target of test [1] is T1, F876L mutant Androgen Receptor (AR-F876L) (Homo sapiens (Human), UniProt P10275, F877L). As to the kind of experiment: LNCaP-AR-F876L AG reporter assay (agonist mode). The test is classed as cell-based. As to conditions: for EC50: agonist mode, pEC50 = −Log10(EC50 in Molar), read-out: LNCaP-AR-F876L AG pEC50 (converted); for Emax: maximum % stimulation (agonist response) over the tested concentration range, read-out: LNCaP-AR-F876L AG MAX % Stim. A general note: In a reporter assay the amount or activity of a reporter protein is the signal.
T1 sequence (P10275 whole entry F877L): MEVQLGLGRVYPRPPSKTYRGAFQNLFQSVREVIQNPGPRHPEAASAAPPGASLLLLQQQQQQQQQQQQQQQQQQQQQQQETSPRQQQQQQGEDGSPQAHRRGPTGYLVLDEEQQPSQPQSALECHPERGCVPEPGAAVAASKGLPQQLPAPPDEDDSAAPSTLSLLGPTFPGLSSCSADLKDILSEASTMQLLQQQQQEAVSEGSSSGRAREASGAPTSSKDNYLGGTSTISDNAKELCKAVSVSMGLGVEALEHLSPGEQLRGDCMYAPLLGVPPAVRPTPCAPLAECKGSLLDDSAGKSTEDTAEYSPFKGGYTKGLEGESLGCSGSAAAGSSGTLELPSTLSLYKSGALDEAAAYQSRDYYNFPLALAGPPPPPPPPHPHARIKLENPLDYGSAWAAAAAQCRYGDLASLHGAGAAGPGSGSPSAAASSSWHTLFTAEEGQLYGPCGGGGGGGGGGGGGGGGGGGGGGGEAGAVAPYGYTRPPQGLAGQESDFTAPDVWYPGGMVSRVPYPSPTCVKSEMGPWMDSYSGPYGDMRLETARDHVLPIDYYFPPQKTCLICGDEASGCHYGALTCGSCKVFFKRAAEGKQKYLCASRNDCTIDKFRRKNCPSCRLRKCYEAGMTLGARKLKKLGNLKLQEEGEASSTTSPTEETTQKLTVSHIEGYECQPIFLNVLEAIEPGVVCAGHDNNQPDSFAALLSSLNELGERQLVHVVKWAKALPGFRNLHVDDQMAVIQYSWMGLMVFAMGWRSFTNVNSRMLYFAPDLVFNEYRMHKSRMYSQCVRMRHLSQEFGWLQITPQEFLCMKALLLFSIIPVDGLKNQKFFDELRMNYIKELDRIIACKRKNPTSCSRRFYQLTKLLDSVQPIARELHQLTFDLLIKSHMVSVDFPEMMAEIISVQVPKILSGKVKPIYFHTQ

For test [2], the target named is T2, wild-type Androgen Receptor (AR-wt) (Homo sapiens (Human), UniProt P10275). As to the kind of experiment: LNCaP-AR-wt AG reporter assay (agonist mode). The test is classed as cell-based. As to conditions: for EC50: agonist mode, pEC50 = −Log10(EC50 in Molar), read-out: LNCaP-AR-wt AG pEC50 (converted); for Emax: maximum % stimulation (agonist response) over the tested concentration range, read-out: LNCaP-AR-wt AG MAX % Stim.
T2 sequence (P10275 whole entry): as the sequence (P10275 whole entry F877L) above, with L877F counted along it

In test [3] the target is T2, wild-type Androgen Receptor (AR-wt). Briefly: LNCaP-AR-wt ANT reporter assay (antagonist mode). As to conditions: for IC50: read-out: LNCaP-AR-wt ANT pIC50 (converted); for Emax: maximum % inhibition of R1881 control response over the tested concentration range, read-out: LNCaP-AR-wt ANT MAX % Inh. The test is classed as cell-based.
The subject of the next test is rGABA-gated Cl− channel. Briefly: GABA-Gated Cl Channel Antagonist Radioligand Binding Assay. Details: species or system rat. As to conditions: 10 μM single point, [35S]-TBPS, cerebral cortex membrane homogenates. In outline:
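Values give percent inhibition of control specific […] (3 nM) binding at a single 10 μM compound concentration. Cerebral cortex membranes, 120 min, 22° C, phosphate buffer pH 7.4 with 500 mM NaCl; 20 μM picrotoxinin sets nonspecific binding; filtration and scintillation read-out.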

Test [4] addresses T1, F876L mutant Androgen Receptor (AR-F876L). As to the kind of experiment: LNCaP-AR-F876L ANT reporter assay (antagonist mode). The test is classed as cell-based. As to conditions: for IC50: read-out: LNCaP-AR-F876L ANT pIC50 (converted); for Emax: maximum % inhibition of R1881 control response over the tested concentration range, read-out: LNCaP-AR-F876L ANT MAX % Inh.
Where [5] appears, read: antagonist mode, pIC50 = −Log10(IC50 in Molar).

The text below walks through data of US10981926B2 (Janssen Pharmaceutica NV, priority 2016, dated 2021).

As for `COc1cc(N2C(=O)C3(CCC3)N(c3ccc(OC4CCNCC4)nc3)C2=S)cnc1C#N` [Cpd 75, 3-methoxy-5-[5-oxo-8-[6-(4-piperidyloxy)-3-pyridyl]-7-thioxo-6,8-diazaspiro[3.4]octan-6-yl]pyridine-2-carbonitrile], the EC50 in test [1] and in test [2] was greater than 15100 nM in each case. The Emax in test [1] came out at 0.1%; in test [2], 0.2%; in test [3], 102%; in test [4], 101%. The figures for the IC50 in test [3] (setting [5]) and in test [4] (setting [5]) were 148 nM and 89.1 nM, respectively. The “rGABA-gated Cl− channel % inh @10 μM” value with rGABA-gated Cl− channel is on record as −32.5%.
Regarding `N#Cc1ncc(N2C(=O)C3(CCC3)N(c3ccc(N4CCN(C(=O)N5CCCC5)CC4)cc3)C2=S)cc1C(F)(F)F` [Cpd 76, 5-(8-oxo-5-(4-(4-(pyrrolidine-1-carbonyl)piperazin-1-yl)phenyl)-6-thioxo-5,7-diazaspiro[3.4]octan-7-yl)-3-(trifluoromethyl)picolinonitrile], the EC50 in test [1] and in test [2] was greater than 15100 nM in each case. Besides, the Emax in test [1] was found to be 2.2%; in test [2], 0.6%; in test [3], 102%; in test [4], 97.5%. Further, the results for the IC50 in test [3] (setting [5]) and in test [4] (setting [5]) were 93.3 nM and 141 nM, respectively. In addition, the “rGABA-gated Cl− channel % inh @10 μM” value in the test on rGABA-gated Cl− channel is recorded as 85.4%.
For the compound `N#Cc1ncc(N2C(=O)C3(CCC3)N(c3ccc(OC4CCN(CCF)CC4)cc3)C2=S)cc1C(F)(F)F` [Cpd 77, 5-[8-[4-[[1-(2-fluoroethyl)-4-piperidyl]oxy]phenyl]-5-oxo-7-thioxo-6,8-diazaspiro[3.4]octan-6-yl]-3-(trifluoromethyl)pyridine-2-carbonitrile], the EC50 in test [1] and in test [2] was greater than 15100 nM each time. The Emax in test [1] was 0.3%; in test [2] it was 0.2%; in test [3] it was 102%; in test [4] it was 100%. Moreover, the IC50 in test [3] (setting [5]) is 37.2 nM; in test [4] (setting [5]), 30.9 nM. The “rGABA-gated Cl− channel % inh @10 μM” value in the test with rGABA-gated Cl− channel is listed as 53.8%.
For `Cc1cc(N2C(=O)C3(CCC3)N(c3ccc(OC4CCN(CCF)CC4)nc3)C2=S)cnc1C#N` [Cpd 78, 5-[8-[6-[[1-(2-fluoroethyl)-4-piperidyl]oxy]-3-pyridyl]-5-oxo-7-thioxo-6,8-diazaspiro[3.4]octan-6-yl]-3-methyl-pyridine-2-carbonitrile], the EC50 in test [1] and in test [2] was greater than 15100 nM in each case. Moreover, the Emax in test [1] turned out to be 0%; in test [2], 1.2%; in test [3] it was 101%; in test [4] it was 100%. The figures for the IC50 in test [3] (setting [5]) and in test [4] (setting [5]) were 93.3 nM and 22.9 nM, respectively. In addition, the “rGABA-gated Cl− channel % inh @10 μM” value in the test with rGABA-gated Cl− channel came out at 3.8%.
For `N#Cc1ncc(N2C(=O)C3(CCC3)N(c3ccc(OC4CCN(CCO)CC4)nc3)C2=S)cc1Cl` [Cpd 79, 3-chloro-5-[8-[6-[[1-(2-hydroxyethyl)-4-piperidyl]oxy]-3-pyridyl]-5-oxo-7-thioxo-6,8-diazaspiro[3.4]octan-6-yl]pyridine-2-carbonitrile], the EC50 in test [1] and in test [2] was greater than 15100 nM each time. Further, the Emax in test [1] stood at 1.3%; in test [2], 1.2%; in test [3] it was 101%; in test [4], 98.5%. Moreover, the IC50 was 6.76 nM in test [3] (setting [5]) and 8.13 nM in test [4] (setting [5]). Moreover, the “rGABA-gated Cl− channel % inh @10 μM” value in the test with rGABA-gated Cl− channel turned out to be 11.5%.
In the case of `CNC1CCC(Oc2ccc(N3C(=S)N(c4cnc(C#N)c(C(F)(F)F)c4)C(=O)C34CCC4)cc2)CC1` (stereo not drawn) [Cpd 80, 5-[8-[4-[4-(methylamino)cyclohexoxy]phenyl]-5-oxo-7-thioxo-6,8-diazaspiro[3.4]octan-6-yl]-3-(trifluoromethyl)pyridine-2-carbonitrile], the EC50 in test [1] and in test [2] was greater than 15100 nM each time. Besides, the Emax in test [1] came out at 0.1%; in test [2] it was 0.6%; in test [3], 102%; in test [4] it was 100%. Moreover, the IC50 in test [3] (setting [5]) is 25.1 nM; in test [4] (setting [5]), 11.2 nM. The “rGABA-gated Cl− channel % inh @10 μM” value with rGABA-gated Cl− channel is on record as 33.7%.
Turning to `CN(C)C1CCC(Oc2ccc(N3C(=S)N(c4cnc(C#N)c(C(F)(F)F)c4)C(=O)C34CCC4)cc2)CC1` (stereo not drawn) [Cpd 81, 5-[8-[4-[4-(dimethylamino)cyclohexoxy]phenyl]-5-oxo-7-thioxo-6,8-diazaspiro[3.4]octan-6-yl]-3-(trifluoromethyl)pyridine-2-carbonitrile], the EC50 in test [1] and in test [2] was greater than 15100 nM in each case. For the same compound, the Emax in test [1] amounted to 0.1%; in test [2], 0.4%; in test [3], 102%; in test [4], 101%. Further, the results for the IC50 in test [3] (setting [5]) and in test [4] (setting [5]) were 28.2 nM and 17 nM, respectively. Moreover, the “rGABA-gated Cl− channel % inh @10 μM” value with rGABA-gated Cl− channel turned out to be 28.8%.
In the case of `N#Cc1ncc(N2C(=O)C3(CCC3)N(c3ccc(OCCN4CCC5(CCOC5)CC4)cc3)C2=S)cc1C(F)(F)F` [Cpd 82, 5-[8-[4-[2-(3-oxa-8-azaspiro[4.5]decan-8-yl)ethoxy]phenyl]-5-oxo-7-thioxo-6,8-diazaspiro[3.4]octan-6-yl]-3-(trifluoromethyl)pyridine-2-carbonitrile], the EC50 in test [1] and in test [2] was greater than 15100 nM in each case. Further, the Emax in test [1] is 0.8%; in test [2], 0.4%; in test [3], 98.7%; in test [4], 97.5%. Moreover, the IC50 was 155 nM in test [3] (setting [5]) and 100 nM in test [4] (setting [5]). In addition, in the test with rGABA-gated Cl− channel, the “rGABA-gated Cl− channel % inh @10 μM” value was determined as 36.7%.
As to `N#Cc1ncc(N2C(=O)C3(CCC3)N(c3ccc(OCCN4CC5(C4)CC(F)(F)C5)cc3)C2=S)cc1C(F)(F)F` [Cpd 83, 5-[8-[4-[2-(2,2-difluoro-6-azaspiro[3.3]heptan-6-yl)ethoxy]phenyl]-5-oxo-7-thioxo-6,8-diazaspiro[3.4]octan-6-yl]-3-(trifluoromethyl)pyridine-2-carbonitrile], the EC50 in test [1] and in test [2] was greater than 15100 nM in each case. The Emax in test [1] is 0.2%; in test [2] it was -0.2%; in test [3], 102%; in test [4], 99%. For the same compound, the IC50 in test [3] (setting [5]) is 229 nM; in test [4] (setting [5]), 129 nM. The “rGABA-gated Cl− channel % inh @10 μM” value in the test with rGABA-gated Cl− channel was 20.5%.
In the case of `CN1CC(Oc2ccc(N3C(=S)N(c4cnc(C#N)c(C(F)(F)F)c4)C(=O)C34CCC4)cc2)C1` [Cpd 84, 5-[8-[4-(1-methylazetidin-3-yl)oxyphenyl]-5-oxo-7-thioxo-6,8-diazaspiro[3.4]octan-6-yl]-3-(trifluoromethyl)pyridine-2-carbonitrile], the EC50 in test [1] and in test [2] was greater than 15100 nM throughout. Besides, the Emax is 0.1% in test [1], 0.2% in test [2], 101% in test [3] and 101% in test [4]. Further, the IC50 in test [3] (setting [5]) is 525 nM; in test [4] (setting [5]) it was 81.3 nM. For the same compound, the “rGABA-gated Cl− channel % inh @10 μM” value in the test with rGABA-gated Cl− channel was 21.9%.
As for `N#Cc1ncc(N2C(=O)C3(CCC3)N(c3ccc(OC4CC5(CNC5)C4)cc3)C2=S)cc1C(F)(F)F` [Cpd 86, 5-[8-[4-(6-azaspiro[3.3]heptan-2-yloxy)phenyl]-5-oxo-7-thioxo-6,8-diazaspiro[3.4]octan-6-yl]-3-(trifluoromethyl)pyridine-2-carbonitrile], the EC50 in test [1] and in test [2] was greater than 15100 nM each time. Besides, the Emax in test [1] came out at 0.1%; in test [2], 0%; in test [3] it was 100%; in test [4], 99.7%. In addition, the IC50 in test [3] (setting [5]) is 123 nM; in test [4] (setting [5]), 75.9 nM. The “rGABA-gated Cl− channel % inh @10 μM” value with rGABA-gated Cl− channel came out at 15.3%.
With `Cc1cc(N2C(=O)C3(CCC3)N(c3ccc(OC4CCNCC4)nc3)C2=S)cnc1C#N` [Cpd 87, 3-methyl-5-[5-oxo-8-[6-(4-piperidyloxy)-3-pyridyl]-7-thioxo-6,8-diazaspiro[3.4]octan-6-yl]pyridine-2-carbonitrile], the EC50 in test [1] and in test [2] was greater than 15100 nM in each case. The Emax in test [1] was 0.1%; in test [2], 0.1%; in test [3], 101%; in test [4], 100%. In addition, the “LNCaP-AR-wt ANT pIC50” value in test [3] (setting [5]) is reported as 6.92. Also, in the test on rGABA-gated Cl− channel, the “rGABA-gated Cl− channel % inh @10 μM” value was −14.8%. The “LNCaP-AR-F876L ANT pIC50” value in test [4] (setting [5]) is reported as 7.09.
